# Assay results taken from publication PMC11842588, “A first-in-class selective inhibitor of ERK1/2 and ERK5 overcomes drug resistance with a single-molecule strategy” (Signal Transduction and Targeted Therapy, 2025).
# How the values were obtained:
# [1] = molecular target: T1, SAPK2b(h) (Homo sapiens, UniProt Q15759); experiment: Kinase profiling; type: biochemical
# T1 construct: purchased Eurofins Cerep SA (KinaseProfiler)
# Experimental: (§1) 380 kinases inhibitory activities of SKLB-D18 were conducted by Eurofins Cerep SA. The result was illustrated by kinase tree (http://www.kinhub.org/kinmap/).
# [2] = molecular target: T2, PRK1(h) (Homo sapiens, UniProt Q16512); experiment: Kinase profiling; type: biochemical
# T2 construct: purchased Eurofins Cerep SA (KinaseProfiler)
# Experimental: as §1
# [3] = molecular target: T3, TLK1(h) (Homo sapiens, UniProt Q9UKI8); experiment: Kinase profiling; type: biochemical
# T3 construct: purchased Eurofins Cerep SA (KinaseProfiler)
# Experimental: as §1
# [4] = molecular target: T4, cKit(h) (Homo sapiens, UniProt P10721); experiment: Kinase profiling; type: biochemical
# T4 construct: purchased Eurofins Cerep SA (KinaseProfiler)
# Experimental: as §1
# [5] = molecular target: T5, CDK2/cyclinA(h) (Homo sapiens, UniProt P24941); experiment: Kinase profiling; type: biochemical
# T5 construct: purchased Eurofins Cerep SA (KinaseProfiler)
# Experimental: as §1
# [6] = molecular target: T6, NEK9(h) (Homo sapiens, UniProt Q8TD19); experiment: Kinase profiling; type: biochemical
# T6 construct: purchased Eurofins Cerep SA (KinaseProfiler)
# Experimental: as §1
# [7] = molecular target: T7, AMPKα2(h) (Homo sapiens, UniProt P54646); experiment: Kinase profiling; type: biochemical
# T7 construct: purchased Eurofins Cerep SA (KinaseProfiler)
# Experimental: as §1
# [8] = molecular target: T8, DCAMKL2(h) (Homo sapiens, UniProt Q8N568); experiment: Kinase profiling; type: biochemical
# T8 construct: purchased Eurofins Cerep SA (KinaseProfiler)
# Experimental: as §1
# [9] = molecular target: T9, DMPK(h) (Homo sapiens, UniProt Q09013); experiment: Kinase profiling; type: biochemical
# T9 construct: purchased Eurofins Cerep SA (KinaseProfiler)
# Experimental: as §1
# [10] = molecular target: T10, ULK2(h) (Homo sapiens, UniProt Q8IYT8); experiment: Kinase profiling; type: biochemical
# T10 construct: purchased Eurofins Cerep SA (KinaseProfiler)
# Experimental: as §1
# [11] = molecular target: T11, STK25(h) (Homo sapiens, UniProt O00506); experiment: Kinase profiling; type: biochemical
# T11 construct: purchased Eurofins Cerep SA (KinaseProfiler)
# Experimental: as §1
# [12] = molecular target: T12, Wee1B(h) (Homo sapiens, UniProt P0C1S8); experiment: Kinase profiling; type: biochemical
# T12 construct: purchased Eurofins Cerep SA (KinaseProfiler)
# Experimental: as §1
# [13] = molecular target: T13, IGF-1R(h), activated (Homo sapiens, UniProt P08069); experiment: Kinase profiling; type: biochemical
# T13 construct: purchased Eurofins Cerep SA (KinaseProfiler)
# Experimental: as §1
# [14] = molecular target: T14, PKBα(h) (Homo sapiens, UniProt P31749); experiment: Kinase profiling; type: biochemical
# T14 construct: purchased Eurofins Cerep SA (KinaseProfiler)
# Experimental: as §1
# [15] = molecular target: T15, MEKK2(h) (Homo sapiens, UniProt Q9Y2U5); experiment: Kinase profiling; type: biochemical
# T15 construct: purchased Eurofins Cerep SA (KinaseProfiler)
# Experimental: as §1
# [16] = molecular target: T16, AAK1(h) (Homo sapiens, UniProt Q2M2I8); experiment: Kinase profiling; type: biochemical
# T16 construct: purchased Eurofins Cerep SA (KinaseProfiler)
# Experimental: as §1
# [17] = molecular target: T17, Met(h) (Homo sapiens, UniProt P08581); experiment: Kinase profiling; type: biochemical
# T17 construct: purchased Eurofins Cerep SA (KinaseProfiler)
# Experimental: as §1
# [18] = molecular target: T18, PKCα(h) (Homo sapiens, UniProt P17252); experiment: Kinase profiling; type: biochemical
# T18 construct: purchased Eurofins Cerep SA (KinaseProfiler)
# Experimental: as §1
# [19] = molecular target: T19, TAO2(h) (Homo sapiens, UniProt Q9UL54); experiment: Kinase profiling; type: biochemical
# T19 construct: purchased Eurofins Cerep SA (KinaseProfiler)
# Experimental: as §1
# [20] = molecular target: T20, IR(h) (Homo sapiens, UniProt P06213); experiment: Kinase profiling; type: biochemical
# T20 construct: purchased Eurofins Cerep SA (KinaseProfiler)
# Experimental: as §1
# [21] = molecular target: T21, CLK1(h) (Homo sapiens, UniProt P49759); experiment: Kinase profiling; type: biochemical
# T21 construct: purchased Eurofins Cerep SA (KinaseProfiler)
# Experimental: as §1
# [22] = molecular target: T22, STK39(h) (Homo sapiens, UniProt Q9UEW8); experiment: Kinase profiling; type: biochemical
# T22 construct: purchased Eurofins Cerep SA (KinaseProfiler)
# Experimental: as §1
# [23] = system: BT549 cells; experiment: MTT cell viability assay; type: cell-based; settings: Homo sapiens, BT-549, 72 h
# Experimental: (§2) MDA-MB-468 and MDA-MB-436 cells were cultured in Leibovitz’s L-15 medium supplemented with 10% fetal bovine serum. […] All of the cells were cultured at 37 °C in a humidified atmosphere containing 5% CO2.
# (§3) Cancer cells were seeded in a density in 96-well plates (2 × 10^3 cells per well). After incubation for 24 h, cancer cells were treated with compounds (0–20 μM) for 72 h.
# [24] = system: MDA-MB-436 cells; experiment: MTT cell viability assay; type: cell-based; settings: Homo sapiens, 72 h
# Experimental: as §2, §3
# [25] = system: MDA-MB-231 cells; experiment: MTT cell viability assay; type: cell-based
# Experimental: as §2, §3
# [26] = system: MDA-MB-468 cells; experiment: MTT cell viability assay; type: cell-based
# Experimental: as §2, §3
# [27] = system: MDA-MB-468 cells with knockdown of ERK1/2/5; experiment: MTT assay in ERK1/2/5 siRNA knockdown cells; type: cell-based; settings: Homo sapiens, siRNA co-transfection
# Experimental: (§4) The transient transfection processes were performed according to Lipofectamine 3000 transfection procedure details. The transfected cells were used for subsequent experiments after 48 h or 72 h.
# as §3
# [28] = system: MDA-MB-231 cells with knockdown of ERK1/2/5; experiment: MTT assay in ERK1/2/5 siRNA knockdown cells; type: cell-based; settings: Homo sapiens, siRNA co-transfection
# Experimental: as §4, §3
# [29] = Body weight and adverse effects in xenograft study; type: in vivo, nude mice (BALB/c-nu); settings: 25 and 50 mg/kg orally daily for 16 days
# Experimental: All procedures were performed in accordance with the Laboratory Animals Welfare Act, the Guide for the Care and Use of Laboratory Animals and the Guidelines and Policies. The rodent experiment was approved by IACUC (Institutional Animal Care and Use Committee) in the Experimental Animal Ethics Committee of West China Hospital (Approval No. 2021672A). 48 female nude mice (BALB/c-nu, 5 weeks, 15–18 g, purchased from Beijing HFK Bio-Technology Co., LTD) were acclimatized for one week in an SPF-grade animal facility (ventilated, 20–25 °C, 50–60% humidity). […] When the tumor volume reached approximately 100 mm^3 (V = L × W^2/2), the mice were randomly divided into six groups (n = 8 per group): (1) Control group (normal saline); (2) 25 mg/kg SKLB-D18-treated group; (3) 50 mg/kg SKLB-D18-treated group; (4) 50 mg/kg BVD-523-treated group; (5) 50 mg/kg XMD8-92-treated group; (6) BVD-523 (50 mg/kg) and XMD8-92 (50 mg/kg) combined treatment group. Drugs were freshly prepared with 5% DMSO, 10% Solutol HS-15, and 85% normal saline on the day of administration. Intragastric administration occurred once daily at the same time for 16 consecutive days. And the body weight and tumor volume of mice were measured every three days. After the administration period, all nude mice were euthanized by cervical dislocation the next day. […]
# T6 sequence (Q8TD19 whole entry): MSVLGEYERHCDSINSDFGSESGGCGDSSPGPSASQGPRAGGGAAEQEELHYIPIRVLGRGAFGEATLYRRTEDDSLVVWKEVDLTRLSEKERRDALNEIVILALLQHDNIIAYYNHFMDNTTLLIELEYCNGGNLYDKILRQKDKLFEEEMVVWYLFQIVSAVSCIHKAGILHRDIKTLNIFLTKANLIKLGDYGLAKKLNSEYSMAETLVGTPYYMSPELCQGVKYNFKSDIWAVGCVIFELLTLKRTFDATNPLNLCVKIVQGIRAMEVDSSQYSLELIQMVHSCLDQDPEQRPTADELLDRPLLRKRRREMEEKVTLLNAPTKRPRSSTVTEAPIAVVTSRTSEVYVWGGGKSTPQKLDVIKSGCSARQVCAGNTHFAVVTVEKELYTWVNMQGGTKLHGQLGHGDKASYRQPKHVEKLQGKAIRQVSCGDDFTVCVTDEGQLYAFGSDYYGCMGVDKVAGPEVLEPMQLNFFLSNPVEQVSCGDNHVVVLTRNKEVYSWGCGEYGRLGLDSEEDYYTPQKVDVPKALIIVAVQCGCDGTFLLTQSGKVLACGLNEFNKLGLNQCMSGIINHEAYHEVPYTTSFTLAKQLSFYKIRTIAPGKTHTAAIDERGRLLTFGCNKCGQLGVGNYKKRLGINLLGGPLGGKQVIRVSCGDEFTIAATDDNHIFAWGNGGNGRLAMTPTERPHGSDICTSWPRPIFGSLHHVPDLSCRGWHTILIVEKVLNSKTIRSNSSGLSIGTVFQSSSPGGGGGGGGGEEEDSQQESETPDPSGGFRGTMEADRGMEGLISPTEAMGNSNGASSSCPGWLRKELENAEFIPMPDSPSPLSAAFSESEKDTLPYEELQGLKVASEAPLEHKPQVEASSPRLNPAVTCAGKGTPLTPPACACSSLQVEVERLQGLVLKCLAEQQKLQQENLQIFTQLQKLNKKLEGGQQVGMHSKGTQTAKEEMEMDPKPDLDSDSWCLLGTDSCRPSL
# T13 sequence (P08069 31-1367): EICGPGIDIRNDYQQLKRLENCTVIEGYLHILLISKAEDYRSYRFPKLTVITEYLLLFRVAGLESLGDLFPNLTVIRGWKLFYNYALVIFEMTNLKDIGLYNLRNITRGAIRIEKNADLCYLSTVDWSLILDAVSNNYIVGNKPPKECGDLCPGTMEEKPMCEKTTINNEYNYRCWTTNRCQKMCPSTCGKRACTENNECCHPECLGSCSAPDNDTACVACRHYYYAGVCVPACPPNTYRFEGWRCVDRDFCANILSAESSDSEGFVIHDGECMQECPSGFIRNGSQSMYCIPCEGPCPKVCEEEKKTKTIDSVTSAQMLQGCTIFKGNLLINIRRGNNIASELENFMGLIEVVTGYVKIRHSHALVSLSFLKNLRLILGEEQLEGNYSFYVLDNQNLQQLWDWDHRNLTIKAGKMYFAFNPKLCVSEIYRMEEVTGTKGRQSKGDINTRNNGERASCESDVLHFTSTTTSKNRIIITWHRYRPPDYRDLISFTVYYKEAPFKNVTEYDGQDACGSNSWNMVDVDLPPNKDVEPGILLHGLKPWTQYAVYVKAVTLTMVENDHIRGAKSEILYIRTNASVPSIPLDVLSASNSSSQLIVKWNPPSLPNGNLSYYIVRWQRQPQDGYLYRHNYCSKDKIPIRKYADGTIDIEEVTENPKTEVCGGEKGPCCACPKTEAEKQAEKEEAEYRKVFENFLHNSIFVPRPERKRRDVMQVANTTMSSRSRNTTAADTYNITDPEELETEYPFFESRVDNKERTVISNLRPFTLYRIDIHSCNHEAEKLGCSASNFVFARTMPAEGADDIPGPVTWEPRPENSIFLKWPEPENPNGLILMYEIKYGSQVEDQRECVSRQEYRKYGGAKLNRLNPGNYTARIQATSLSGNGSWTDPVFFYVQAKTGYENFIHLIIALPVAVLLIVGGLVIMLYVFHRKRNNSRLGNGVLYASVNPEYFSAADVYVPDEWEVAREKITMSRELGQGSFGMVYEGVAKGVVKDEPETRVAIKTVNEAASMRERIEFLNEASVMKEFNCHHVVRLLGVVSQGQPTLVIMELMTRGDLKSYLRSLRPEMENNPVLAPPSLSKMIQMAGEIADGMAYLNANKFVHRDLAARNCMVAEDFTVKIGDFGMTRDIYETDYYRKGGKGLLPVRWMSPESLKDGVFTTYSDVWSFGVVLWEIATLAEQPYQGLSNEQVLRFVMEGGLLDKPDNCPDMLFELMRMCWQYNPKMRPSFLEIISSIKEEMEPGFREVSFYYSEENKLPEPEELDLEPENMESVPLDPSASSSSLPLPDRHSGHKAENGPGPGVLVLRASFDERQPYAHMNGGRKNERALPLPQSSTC
# T17 sequence (P08581 25-1390): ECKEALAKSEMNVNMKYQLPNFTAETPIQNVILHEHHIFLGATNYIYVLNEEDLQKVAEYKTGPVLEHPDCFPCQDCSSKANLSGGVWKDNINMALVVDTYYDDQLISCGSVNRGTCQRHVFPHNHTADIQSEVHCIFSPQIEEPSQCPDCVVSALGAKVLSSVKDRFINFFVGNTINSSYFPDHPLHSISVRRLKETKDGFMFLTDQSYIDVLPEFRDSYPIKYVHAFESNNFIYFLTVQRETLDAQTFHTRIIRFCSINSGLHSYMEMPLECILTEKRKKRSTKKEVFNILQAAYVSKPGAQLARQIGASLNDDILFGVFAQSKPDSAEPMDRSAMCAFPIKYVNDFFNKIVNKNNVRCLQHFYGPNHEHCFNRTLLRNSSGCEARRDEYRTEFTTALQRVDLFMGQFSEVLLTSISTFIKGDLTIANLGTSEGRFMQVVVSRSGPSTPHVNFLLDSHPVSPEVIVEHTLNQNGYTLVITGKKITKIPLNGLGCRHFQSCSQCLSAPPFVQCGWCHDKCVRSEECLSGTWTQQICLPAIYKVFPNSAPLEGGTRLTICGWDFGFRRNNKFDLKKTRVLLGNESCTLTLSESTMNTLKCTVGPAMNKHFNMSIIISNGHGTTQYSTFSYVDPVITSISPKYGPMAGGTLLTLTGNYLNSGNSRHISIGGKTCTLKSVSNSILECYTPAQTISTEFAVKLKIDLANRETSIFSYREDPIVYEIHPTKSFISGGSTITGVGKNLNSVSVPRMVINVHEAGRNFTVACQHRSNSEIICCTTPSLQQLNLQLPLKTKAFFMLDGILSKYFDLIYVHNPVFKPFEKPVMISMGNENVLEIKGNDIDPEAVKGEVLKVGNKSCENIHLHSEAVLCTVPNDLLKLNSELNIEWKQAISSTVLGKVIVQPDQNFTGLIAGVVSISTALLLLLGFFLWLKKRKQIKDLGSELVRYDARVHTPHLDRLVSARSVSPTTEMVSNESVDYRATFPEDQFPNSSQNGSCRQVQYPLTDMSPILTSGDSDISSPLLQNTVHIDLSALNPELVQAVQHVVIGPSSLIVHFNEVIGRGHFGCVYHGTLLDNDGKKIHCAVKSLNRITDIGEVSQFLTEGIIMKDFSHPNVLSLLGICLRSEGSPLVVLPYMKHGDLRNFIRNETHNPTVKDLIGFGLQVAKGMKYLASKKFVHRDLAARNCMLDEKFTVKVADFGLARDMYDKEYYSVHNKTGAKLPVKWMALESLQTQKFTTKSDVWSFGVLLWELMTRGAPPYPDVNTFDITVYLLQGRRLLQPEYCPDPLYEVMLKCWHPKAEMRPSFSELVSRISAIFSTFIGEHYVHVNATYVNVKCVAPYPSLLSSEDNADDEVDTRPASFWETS
# T1 sequence (Q15759 whole entry): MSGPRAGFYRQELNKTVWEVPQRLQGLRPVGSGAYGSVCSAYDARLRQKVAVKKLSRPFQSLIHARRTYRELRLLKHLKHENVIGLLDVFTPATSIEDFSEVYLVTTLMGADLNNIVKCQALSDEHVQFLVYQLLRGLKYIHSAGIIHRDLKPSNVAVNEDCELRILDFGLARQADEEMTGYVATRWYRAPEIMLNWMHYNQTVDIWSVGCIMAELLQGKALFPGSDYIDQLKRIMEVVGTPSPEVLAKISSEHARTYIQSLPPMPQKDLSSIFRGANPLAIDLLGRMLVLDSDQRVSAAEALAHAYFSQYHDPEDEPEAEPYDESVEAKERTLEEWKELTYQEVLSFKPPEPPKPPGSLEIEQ
# T11 sequence (O00506 whole entry): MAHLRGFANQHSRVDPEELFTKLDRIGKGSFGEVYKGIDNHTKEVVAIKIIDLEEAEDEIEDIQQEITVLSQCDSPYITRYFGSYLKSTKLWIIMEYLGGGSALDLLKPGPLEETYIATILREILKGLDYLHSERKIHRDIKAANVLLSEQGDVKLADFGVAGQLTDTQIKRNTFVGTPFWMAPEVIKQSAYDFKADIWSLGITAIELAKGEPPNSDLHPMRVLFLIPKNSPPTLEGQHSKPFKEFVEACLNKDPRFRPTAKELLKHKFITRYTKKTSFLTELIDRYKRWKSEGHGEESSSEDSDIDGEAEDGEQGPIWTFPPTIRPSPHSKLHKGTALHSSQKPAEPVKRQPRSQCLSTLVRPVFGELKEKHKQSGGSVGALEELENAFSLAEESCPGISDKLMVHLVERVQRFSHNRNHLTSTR
# T9 sequence (Q09013 whole entry): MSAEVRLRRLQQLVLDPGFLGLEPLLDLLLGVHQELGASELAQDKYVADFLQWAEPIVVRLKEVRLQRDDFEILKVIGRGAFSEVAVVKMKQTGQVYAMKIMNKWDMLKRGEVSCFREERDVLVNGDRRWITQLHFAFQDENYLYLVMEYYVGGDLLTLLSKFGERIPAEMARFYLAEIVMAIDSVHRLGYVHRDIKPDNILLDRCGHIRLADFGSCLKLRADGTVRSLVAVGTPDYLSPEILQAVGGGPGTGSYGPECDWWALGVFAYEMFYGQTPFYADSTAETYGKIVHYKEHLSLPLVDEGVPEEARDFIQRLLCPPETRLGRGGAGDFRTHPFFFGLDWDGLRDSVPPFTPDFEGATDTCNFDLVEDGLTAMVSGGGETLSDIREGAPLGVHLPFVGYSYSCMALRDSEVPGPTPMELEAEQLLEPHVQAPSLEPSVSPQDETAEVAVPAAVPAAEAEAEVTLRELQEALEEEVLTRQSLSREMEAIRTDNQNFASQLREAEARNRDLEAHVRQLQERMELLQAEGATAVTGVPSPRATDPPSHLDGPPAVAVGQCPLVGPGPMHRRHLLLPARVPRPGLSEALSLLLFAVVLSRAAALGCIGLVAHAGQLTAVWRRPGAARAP
smiles,measurement,setting,value
"CN(C)Cc1cccc(Nc2ncc(Cl)c(-c3csc(C(=O)NN4CCOCC4)c3)n2)c1 [SKLB-D18, 4-(5-chloro-2-((3-((dimethylamino)methyl)phenyl)amino)pyrimidin-4-yl)-N-morpholinothiophene-2-carboxamide]",inhibition at 1 µM,[1],4%
same,inhibition at 1 µM,[2],73%
same,inhibition at 1 µM,[3],24%
same,inhibition at 1 µM,[4],69%
same,inhibition at 1 µM,[5],58%
same,inhibition at 1 µM,[6],56%
same,inhibition at 1 µM,[7],60%
same,inhibition at 1 µM,[8],55%
same,inhibition at 1 µM,[9],8%
same,inhibition at 1 µM,[10],67%
same,inhibition at 1 µM,[11],7%
same,inhibition at 1 µM,[12],49%
same,inhibition at 1 µM,[13],0%
same,inhibition at 1 µM,[14],12%
same,inhibition at 1 µM,[15],53%
same,inhibition at 1 µM,[16],58%
same,inhibition at 1 µM,[17],61%
same,inhibition at 1 µM,[18],21%
same,inhibition at 1 µM,[19],64%
same,inhibition at 1 µM,[20],0%
same,inhibition at 1 µM,[21],17%
same,inhibition at 1 µM,[22],37%
same,IC50,[23],3210 ± 340 nM
same,IC50,[24],2310 ± 290 nM
same,"Anti-proliferative activity (10 μM, %) MDA-MB-231",[25]; 10 μM,93.44 ± 1.21%
same,IC50,"[25]; Homo sapiens, MDA-MB-231, read-out: IC50 MDA-MB-231, MTT, 72 h",930 ± 110 nM
same,"Anti-proliferative activity (10 μM, %) MDA-MB-468",[26]; 10 μM,92.18 ± 0.93%
same,IC50,"[26]; Homo sapiens, MDA-MB-468, MTT, 72 h",1050 ± 130 nM
same,IC50,[27],19800 nM
same,IC50,[28],14800 nM
same,weight loss or adverse effects,[29],No significant weight loss or adverse effects
